Results as given in ChEMBL document CHEMBL5143612, “Antibacterial activity evaluation of vinyl sulfones against global predominant methicillin-resistant Staphylococcus aureus USA300” (Bioorg Med Chem Lett, 2022).
Converted amounts (≈) assume the structure as drawn. The source made the active and inactive calls. The rule behind the calls is not given here.

What was measured:
Staphylococcus aureus [1] = test: Antibacterial activity against community-associated methicillin-resistant Staphylococcus aureus USA300 SF8300 assessed as inhibition of bacterial growth incubated for 18 to 20 hrs by CLSI based microdilution susceptibility analysis; assay type: functional; details: time 18-20 hrs
Staphylococcus aureus [2] = test: Inhibition of methicillin-susceptible Staphylococcus aureus ATCC 29213 bacterial cell adhesion to fibronectin at 0.1 mg/ml followed by compound addition on fibronectin precoated plate measured after 2 hrs by crystal violet dye based analysis; assay type: functional
Pseudomonas aeruginosa [3] = test: Antibacterial activity against Pseudomonas aeruginosa assessed as inhibition of bacterial growth by measuring zone of inhibition at 30 ug incubated for 18 to 20 hrs by CLSI based disk diffusion analysis; assay type: functional; details: time 18-20 hrs, read-out: DIZ
Pseudomonas aeruginosa [4] = test: Antibacterial activity against Pseudomonas aeruginosa assessed as inhibition of bacterial growth incubated for 18 to 20 hrs by CLSI based microdilution susceptibility analysis; assay type: functional; details: time 18-20 hrs
Staphylococcus aureus [5] = test: Bactericidal activity against community-associated methicillin-resistant Staphylococcus aureus USA300 SF8300 assessed as inhibition of bacterial growth incubated for 18 to 20 hrs by CLSI based microdilution susceptibility analysis; assay type: functional; details: time 18-20 hrs
Staphylococcus aureus [6] = test: Antibacterial activity against community-associated methicillin-resistant Staphylococcus aureus USA300 SF8300 assessed as inhibition of bacterial growth by measuring zone of inhibition at 30 ug incubated for 18 to 20 hrs by CLSI based disk diffusion analysis; assay type: functional; details: time 18-20 hrs, read-out: DIZ
Staphylococcus aureus [7] = test: Antibacterial activity against methicillin-susceptible Staphylococcus aureus ATCC 25923 assessed as inhibition of bacterial growth by measuring zone of inhibition at 30 ug incubated for 18 to 20 hrs by CLSI based disk diffusion analysis; assay type: functional; details: time 18-20 hrs, read-out: DIZ
Staphylococcus aureus [8] = test: Bactericidal activity against methicillin-susceptible Staphylococcus aureus ATCC 29213 assessed as inhibition of bacterial growth incubated for 18 to 20 hrs by CLSI based microdilution susceptibility analysis; assay type: functional; details: time 18-20 hrs
Staphylococcus aureus [9] = test: Antibacterial activity against methicillin-susceptible Staphylococcus aureus ATCC 29213 assessed as inhibition of bacterial growth incubated for 18 to 20 hrs by CLSI based microdilution susceptibility analysis; assay type: functional; details: time 18-20 hrs
Pseudomonas aeruginosa [10] = test: Bactericidal activity against Pseudomonas aeruginosa assessed as inhibition of bacterial growth incubated for 18 to 20 hrs by CLSI based microdilution susceptibility analysis; assay type: functional; details: time 18-20 hrs
Sortase A = target: T1, Sortase A (Staphylococcus aureus, UniProt Q9S446); test: Inhibition of Staphylococcus aureus sortase A using Abz/Dnp fluorescent peptide as a substrate measured after 30 mins by fluorescent based analysis
T1 sequence (Q9S446 whole entry): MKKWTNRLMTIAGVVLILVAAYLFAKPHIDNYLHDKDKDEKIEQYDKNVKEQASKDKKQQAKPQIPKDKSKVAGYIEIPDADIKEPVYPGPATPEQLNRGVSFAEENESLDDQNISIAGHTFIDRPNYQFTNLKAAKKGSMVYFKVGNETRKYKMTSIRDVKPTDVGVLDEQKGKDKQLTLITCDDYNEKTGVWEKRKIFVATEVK

Albumin = Albumin (Homo sapiens, UniProt P02768); test: Binding affinity to cysteine residue of human serum albumin assessed as conjugation of compound with protein at 1:1 compound to human serum albumin concentration incubated for 2 hr by LC-MS/MS analysis; assay type: cell-free
Albumin, sequence (P02768 whole entry): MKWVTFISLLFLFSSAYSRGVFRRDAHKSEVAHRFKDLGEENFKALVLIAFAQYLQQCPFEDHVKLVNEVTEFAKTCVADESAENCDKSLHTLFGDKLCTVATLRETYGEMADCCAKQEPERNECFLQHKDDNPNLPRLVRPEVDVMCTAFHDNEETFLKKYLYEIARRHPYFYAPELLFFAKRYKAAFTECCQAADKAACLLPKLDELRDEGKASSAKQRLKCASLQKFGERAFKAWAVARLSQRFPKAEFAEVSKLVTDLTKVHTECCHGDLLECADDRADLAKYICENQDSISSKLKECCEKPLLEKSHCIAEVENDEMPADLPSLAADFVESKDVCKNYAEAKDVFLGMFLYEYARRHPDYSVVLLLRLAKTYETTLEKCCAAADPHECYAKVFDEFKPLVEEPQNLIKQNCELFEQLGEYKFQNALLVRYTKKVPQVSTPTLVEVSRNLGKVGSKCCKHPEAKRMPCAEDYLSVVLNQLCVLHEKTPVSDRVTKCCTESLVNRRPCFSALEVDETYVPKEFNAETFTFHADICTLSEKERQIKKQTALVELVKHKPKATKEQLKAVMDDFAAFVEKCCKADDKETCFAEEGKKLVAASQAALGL

SMILES | MIC (Staphylococcus aureus [1]) [µg/mL] | inhibition (Staphylococcus aureus [2]) | zone of inhibition at 30 µg/disc (Pseudomonas aeruginosa [3]) [mm] | MIC (Pseudomonas aeruginosa [4]) [µg/mL] | MBC (Staphylococcus aureus [5]) [µg/mL] | zone of inhibition at 30 µg/disc (Staphylococcus aureus [6]) [mm] | zone of inhibition at 30 µg/disc (Staphylococcus aureus [7]) [mm] | MBC (Staphylococcus aureus [8]) [µg/mL] | MIC (Staphylococcus aureus [9]) [µg/mL] | MBC (Pseudomonas aeruginosa [10]) [µg/mL] | IC50 (Sortase A) [µM] | Activity (Albumin)
N#C/C=C/S(=O)(=O)c1ccc(Cl)cc1 | 7.5 (≈ 32.9 µM) | Active | 13.9 | 60 (≈ 264 µM) | 60 (≈ 264 µM) | 25.5 | 22.8 | 15 (≈ 65.9 µM) | 1.88 (≈ 8.24 µM) | 120 (≈ 527 µM) |  | 
C/C(=C\C#N)S(=O)(=O)c1ccc(C)cc1 |  |  | 6 |  |  | 6 | 16.2 | 60 (≈ 271 µM) | 60 (≈ 271 µM) |  |  | 
Cc1ccc(S(=O)(=O)C/C=C\Oc2ccccc2)cc1 |  |  | 6 |  |  | 6 | 6 |  |  |  |  | 
COc1ccc(S(=O)(=O)/C=C\C#N)cc1 | 15 (≈ 67.2 µM) | Active | 14.2 | 120 (≈ 538 µM) | 60 (≈ 269 µM) | 24.7 | 24.5 | 60 (≈ 269 µM) | 3.75 (≈ 16.8 µM) | 120 (≈ 538 µM) |  | 
Cc1ccc(S(=O)(=O)/C=C/C#N)cc1 | 7.5 (≈ 36.2 µM) | Active | 12.9 | 120 (≈ 579 µM) | 60 (≈ 289 µM) | 27.7 | 28 | 15 (≈ 72.4 µM) | 1.88 (≈ 9.05 µM) | > 120 | 129 | Active
N#C/C=C/S(=O)(=O)c1ccc(Br)cc1 | 15 (≈ 55.1 µM) | Active | 12.9 | 120 (≈ 441 µM) | 60 (≈ 220 µM) | 25.7 | 24.7 | 15 (≈ 55.1 µM) | 7.5 (≈ 27.6 µM) | > 120 |  | 
Cc1ccc(S(=O)(=O)/C=C/C(=O)O)cc1 |  |  | 6 |  |  | 6 | 9.94 | > 120 | > 120 |  |  | 
CCCCOC(=O)/C=C/S(=O)(=O)c1ccc(C)cc1 | 60 (≈ 212 µM) |  | 6 |  | > 120 | 15.1 | 13.9 | 120 (≈ 425 µM) | 7.5 (≈ 26.6 µM) |  |  | 
Cc1ccc(S(=O)(=O)/C=C/c2ccc(Cl)cc2)cc1 |  |  | 6 |  |  | 6 | 6 |  |  |  |  | 
N#C/C=C/S(=O)(=O)c1ccc([N+](=O)[O-])cc1 |  | Active | 13.1 | 120 (≈ 504 µM) |  | 6 | 21.1 | 60 (≈ 252 µM) | 30 (≈ 126 µM) | 120 (≈ 504 µM) |  | 
O=S(=O)(/C=C/CCCBr)c1ccc(Br)cc1 |  |  | 6 |  |  | 6 | 6 |  |  |  |  | 
C/C(=C/C#N)S(=O)(=O)c1ccc(C)cc1 | 7.5 (≈ 33.9 µM) |  | 6 |  | 15 (≈ 67.8 µM) | 23.6 | 23.6 | 7.5 (≈ 33.9 µM) | 7.5 (≈ 33.9 µM) |  |  | 
COc1ccc(S(=O)(=O)/C=C/C#N)cc1 | 3.75 (≈ 16.8 µM) | Active | 13.3 | > 120 | 30 (≈ 134 µM) | 25.9 | 26.9 | 30 (≈ 134 µM) | 1.88 (≈ 8.4 µM) | > 120 |  | 
COC(=O)/C=C/S(=O)(=O)c1ccc(C)cc1 | 15 (≈ 62.4 µM) |  | 10.6 | > 120 | 120 (≈ 499 µM) | 18.7 | 20.6 | 120 (≈ 499 µM) | 7.5 (≈ 31.2 µM) | > 120 |  | 
C/C(C#N)=C\S(=O)(=O)c1ccc(C)cc1 | 30 (≈ 136 µM) |  | 6 |  | 120 (≈ 542 µM) | 11.3 | 6 |  |  |  |  | 
Cc1ccc(S(=O)(=O)/C=C/C(N)=O)cc1 |  |  | 6 |  |  | 6 | 22 | 60 (≈ 266 µM) | 60 (≈ 266 µM) |  |  | 
CCS(=O)(=O)c1ccc(C)cc1 |  |  | 6 |  |  | 6 | 6 |  |  |  |  | 
COC(=O)/C(C)=C/S(=O)(=O)c1ccc(C)cc1 |  |  | 6 |  |  | 6 | 6 |  |  |  |  | 
Cc1ccc(S(=O)(=O)/C=C/C(=O)OC(C)(C)C)cc1 | 30 (≈ 106 µM) |  | 6 |  | 60 (≈ 212 µM) | 16.7 | 14.9 | 120 (≈ 425 µM) | 7.5 (≈ 26.6 µM) |  |  | 
N#C/C=C\S(=O)(=O)c1ccccc1 |  | Active | 14.1 | 60 (≈ 311 µM) |  | 6 | 22.3 | 30 (≈ 155 µM) | 15 (≈ 77.6 µM) | 120 (≈ 621 µM) |  | 
N#C/C=C\S(=O)(=O)c1ccc(Br)cc1 | 60 (≈ 220 µM) | Active | 13.8 | 60 (≈ 220 µM) | 120 (≈ 441 µM) | 23.4 | 22.6 | 30 (≈ 110 µM) | 30 (≈ 110 µM) | > 120 |  | 
Cc1ccc(S(=O)(=O)/C=C/Cc2ccccc2)cc1 |  |  | 6 |  |  | 6 | 6 |  |  |  |  | 
Cc1ccc(S(=O)(=O)/C=C/COCc2ccccc2)cc1 |  |  | 6 |  |  | 6 | 8.3 | > 120 | > 120 |  |  | 
N#C/C=C\S(=O)(=O)c1ccc(Cl)cc1 |  | Active | 16.3 | 60 (≈ 264 µM) |  | 6 | 20 | 60 (≈ 264 µM) | 7.5 (≈ 32.9 µM) | 60 (≈ 264 µM) |  | 
Cc1ccc(/C=C/S(=O)(=O)c2ccc(C)cc2)cc1 |  |  | 6 |  |  | 6 | 6 |  |  |  |  | 
N#C/C=C/S(=O)(=O)c1ccccc1 | 7.5 (≈ 38.8 µM) | Active | 14.1 | 60 (≈ 311 µM) | 60 (≈ 311 µM) | 25.2 | 22.6 | 30 (≈ 155 µM) | 1.88 (≈ 9.7 µM) | 60 (≈ 311 µM) |  | 
O=[N+]([O-])c1ccc(S(=O)(=O)/C=C/CCCBr)cc1 |  |  | 6 |  |  | 6 | 6 |  |  |  |  | 
Cc1ccc(S(=O)(=O)/C=C/CCCBr)cc1 |  |  | 6 |  |  | 6 | 6 |  |  |  |  | 
